Molecules are shown by their SMILES. Some results are limits rather than exact numbers.

Usually IC50 stands for the concentration that inhibits the measured activity by half. A higher IC50 goes with lower potency.

In one test the target is VEGFR2 (Homo sapiens (Human), UniProt P35968). As to the kind of experiment: VEGFR2 Phospho ELISA assay. The following applies: HUVEC, treated 1 hour, VEGF stimulated; phospho VEGFR2 relative to Total VEGFR2. On the technique in general: In an ELISA, binding on a coated surface is turned into a signal by an enzyme label.
Chain of VEGFR2 (P35968 20-1356): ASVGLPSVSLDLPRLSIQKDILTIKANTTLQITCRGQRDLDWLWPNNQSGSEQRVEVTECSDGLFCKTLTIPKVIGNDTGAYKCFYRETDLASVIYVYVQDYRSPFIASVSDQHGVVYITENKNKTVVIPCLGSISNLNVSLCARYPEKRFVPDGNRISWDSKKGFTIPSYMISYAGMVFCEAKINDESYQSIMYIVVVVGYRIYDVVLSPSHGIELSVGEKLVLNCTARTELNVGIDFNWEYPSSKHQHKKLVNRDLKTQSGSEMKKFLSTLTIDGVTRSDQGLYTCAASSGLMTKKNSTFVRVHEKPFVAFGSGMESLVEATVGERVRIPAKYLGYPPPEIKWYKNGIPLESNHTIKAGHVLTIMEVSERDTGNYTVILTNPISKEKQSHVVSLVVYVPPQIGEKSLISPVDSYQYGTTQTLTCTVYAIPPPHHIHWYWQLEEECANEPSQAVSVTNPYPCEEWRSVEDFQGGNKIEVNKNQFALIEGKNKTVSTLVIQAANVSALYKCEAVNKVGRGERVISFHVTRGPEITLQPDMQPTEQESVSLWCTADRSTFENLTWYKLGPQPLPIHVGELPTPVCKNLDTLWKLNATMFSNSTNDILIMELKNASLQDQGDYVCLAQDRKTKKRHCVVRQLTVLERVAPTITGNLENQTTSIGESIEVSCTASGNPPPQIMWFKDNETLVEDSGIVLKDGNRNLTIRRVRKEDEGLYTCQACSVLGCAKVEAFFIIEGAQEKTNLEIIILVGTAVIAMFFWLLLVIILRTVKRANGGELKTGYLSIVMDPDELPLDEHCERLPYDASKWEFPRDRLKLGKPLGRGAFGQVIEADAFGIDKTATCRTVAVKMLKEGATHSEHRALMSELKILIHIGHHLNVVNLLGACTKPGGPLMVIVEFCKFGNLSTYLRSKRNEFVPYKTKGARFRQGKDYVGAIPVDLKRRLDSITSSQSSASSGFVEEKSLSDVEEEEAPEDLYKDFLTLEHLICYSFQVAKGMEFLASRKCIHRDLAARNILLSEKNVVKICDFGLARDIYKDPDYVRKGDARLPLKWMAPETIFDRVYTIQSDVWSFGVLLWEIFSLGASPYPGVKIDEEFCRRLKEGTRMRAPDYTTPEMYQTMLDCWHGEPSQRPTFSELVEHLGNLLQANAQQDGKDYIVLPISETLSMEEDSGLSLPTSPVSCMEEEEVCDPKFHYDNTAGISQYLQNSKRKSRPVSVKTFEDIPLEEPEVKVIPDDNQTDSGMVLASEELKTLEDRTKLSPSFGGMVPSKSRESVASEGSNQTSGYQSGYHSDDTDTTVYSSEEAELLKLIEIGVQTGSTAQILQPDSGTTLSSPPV
Test [1] concerns the target VEGFR3 cytoplasmic domain (Homo sapiens, UniProt P35916). In words: VEGFR3 Biochemical assay (AlphaScreen). The following applies: N-terminal GST-fusion enzyme, 500 μM ATP, 90 minutes at 30 degree Celsius (modified form: Hexa-His-fusion, 1 μM ATP). For orientation: Alpha assays give light when donor and acceptor beads are brought close together.
The next test has as its target VEGFR3 (Homo sapiens (Human), UniProt P35916). As to the kind of experiment: VEGFR3 Phospho ELISA assay. The following applies: HMVEC-dLyAD cells, treated 1 hour, VEGFC stimulated; phospho VEGFR3 relative to Total VEGFR3. It is filed as cell-based.

Chain of VEGFR3 cytoplasmic domain (P35916 25-1363 limits assumed): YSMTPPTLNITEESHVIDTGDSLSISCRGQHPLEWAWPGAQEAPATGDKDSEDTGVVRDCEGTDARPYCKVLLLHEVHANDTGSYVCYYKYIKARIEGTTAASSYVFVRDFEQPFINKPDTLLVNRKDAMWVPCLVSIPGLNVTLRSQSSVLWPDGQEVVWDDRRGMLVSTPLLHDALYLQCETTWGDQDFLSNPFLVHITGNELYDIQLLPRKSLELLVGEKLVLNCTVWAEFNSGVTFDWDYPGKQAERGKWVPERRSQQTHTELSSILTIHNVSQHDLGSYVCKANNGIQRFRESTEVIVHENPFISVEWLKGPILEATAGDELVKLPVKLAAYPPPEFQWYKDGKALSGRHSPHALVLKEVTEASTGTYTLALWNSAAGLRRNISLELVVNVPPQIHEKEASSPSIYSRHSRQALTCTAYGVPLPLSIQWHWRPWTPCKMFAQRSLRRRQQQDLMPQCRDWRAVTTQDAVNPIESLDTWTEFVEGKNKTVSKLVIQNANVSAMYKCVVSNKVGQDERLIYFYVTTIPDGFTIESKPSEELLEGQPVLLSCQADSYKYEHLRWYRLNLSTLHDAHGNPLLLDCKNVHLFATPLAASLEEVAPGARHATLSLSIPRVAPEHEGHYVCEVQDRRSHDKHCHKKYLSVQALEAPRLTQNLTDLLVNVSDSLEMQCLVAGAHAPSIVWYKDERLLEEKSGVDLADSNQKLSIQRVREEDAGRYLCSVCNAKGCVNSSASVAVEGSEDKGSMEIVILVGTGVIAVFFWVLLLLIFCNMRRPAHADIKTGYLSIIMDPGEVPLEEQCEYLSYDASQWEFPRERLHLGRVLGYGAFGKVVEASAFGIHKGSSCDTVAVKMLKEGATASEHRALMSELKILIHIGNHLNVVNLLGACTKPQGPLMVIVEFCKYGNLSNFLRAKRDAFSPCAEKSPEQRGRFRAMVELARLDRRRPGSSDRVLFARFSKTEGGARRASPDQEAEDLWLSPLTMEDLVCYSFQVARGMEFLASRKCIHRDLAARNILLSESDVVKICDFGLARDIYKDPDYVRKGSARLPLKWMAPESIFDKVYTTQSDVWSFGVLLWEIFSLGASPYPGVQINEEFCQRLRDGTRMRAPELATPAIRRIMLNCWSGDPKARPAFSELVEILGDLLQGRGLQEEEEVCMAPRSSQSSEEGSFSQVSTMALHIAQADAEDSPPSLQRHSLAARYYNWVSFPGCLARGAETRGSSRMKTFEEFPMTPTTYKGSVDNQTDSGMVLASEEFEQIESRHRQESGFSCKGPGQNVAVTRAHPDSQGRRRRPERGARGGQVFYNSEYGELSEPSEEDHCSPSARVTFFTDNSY
Chain of VEGFR3 (P35916 25-1363): as the sequence (P35916 25-1363 limits assumed) above

In the case of `CC(C(N)=O)c1ccccc1CCc1nc(Nc2cnn(C3CCN(C)CC3)c2)ncc1C(F)(F)F` (single isomer, unassigned) [Compound 57-2A, 2-(2-(2-(2-((1-(1-Methylpiperidin-4-yl)-1H-pyrazol-4-yl)amino)-5-(trifluoromethyl)pyrimidin-4-yl)ethyl)phenyl)propanamide], at VEGFR2, the IC50 is 382 nM.
Consider `NC(=O)C1(c2ccccc2CCc2nc(Nc3ccc(C(F)(F)F)nc3)ncc2C(F)(F)F)CC1` [Compound 10], for which the IC50 in test [1] was 92 nM.
With `CC(C(N)=O)c1ccccc1CCc1nc(Nc2cnn(C3CCNCC3)c2)ncc1C(F)(F)F` (racemic) [Compound 56, 2-(2-(2-(2-((1-(piperidin-4-yl)-1H-pyrazol-4-yl)amino)-5-(trifluoromethyl)pyrimidin-4-yl)ethyl)phenyl)propanamide], on VEGFR2, half-maximal inhibition (IC50) was put at 2220 nM.
On to `CCC(C(N)=O)c1ccccc1CCc1nc(Nc2ccc(C3CCNCC3)cc2)ncc1C(F)(F)F` (racemic) [Compound 1, 2-(2-(2-(2-((4-(piperidin-4-yl)phenyl)amino)-5-(trifluoromethyl)pyrimidin-4-yl)ethyl)phenyl)butanamide], for which the IC50 at VEGFR3 was 173 nM; against VEGFR2 it was more than 10000 nM; in test [1] it was 91 nM.

(Values after patent US9238644B2, “VEGFR3 inhibitors” (CANCER THERAPEUTICS CRC PTY LIMITED, priority 2012, dated 2016).)
